Consider six compounds from ChEMBL document CHEMBL1124182, “Design, synthesis, and properties of (4S)-7-(4-amino-2-substituted-pyrrolidin-1-yl)quinolone-3-carboxylic acids” (J Med Chem, 1988).

For orientation: logP means a log measure of how a compound divides between an organic and an aqueous phase. High values mean higher lipophilicity, low ones lower lipophilicity. Broadly, the MIC is the lowest concentration found to suppress growth. Usually ED50 stands for the dose at which the effect has come halfway, by size or by number of responders. The solubility is the concentration that dissolves in the medium under given conditions.

Structures are written as SMILES. Values after ≈ are worked out from the molar mass of the structure shown.

Data set [1] can be described thus: Partition coefficient (logP). The note with it: octanol/water. Type of data set: physicochemical.
Data set [2] concerns Acinetobacter. As to the kind of experiment: In vitro Minimum inhibitory concentration against Acinetobacter CMX 669. Type of data set: functional. Conditions: Acinetobacter; read-out: MIC.
Data set [3] relates to Escherichia coli. As to the kind of experiment: In vitro Minimum inhibitory concentration against Escherichia coli Juhl. Format: functional.
Data set [4] concerns Escherichia coli. The experiment in a line: Supercoiling inhibition assay using purified DNA gyrase isolated from Escherichia coli H560. Format: functional. Conditions: read-out: I50.
Data set [5] concerns Klebsiella pneumoniae. The experiment in a line: In vitro Minimum inhibitory concentration against Klebsiella pneumoniae 8045. Format: functional.
Data set [6] has as its system Mus musculus. The experiment in a line: In vivo efficacy against Escherichia coli Juhl, in mouse protection tests when administered perorally (po). Format: functional.
For data set [7], the system named is Mus musculus. As to the kind of experiment: In vivo efficacy against Escherichia coli Juhl, in mouse protection tests when administered subcutaneously (sc). Type of data set: functional.
Data set [8] deals with Pseudomonas aeruginosa. As to the kind of experiment: In vitro Minimum inhibitory concentration against Pseudomonas aeruginosa 5007. Format: functional.
The test system of data set [9] is Pseudomonas aeruginosa. The experiment in a line: In vitro Minimum inhibitory concentration against Pseudomonas aeruginosa K799/WT. Type of data set: functional.
Data set [10] concerns Staphylococcus epidermidis. The experiment in a line: In vitro Minimum inhibitory concentration against Staphylococcus epidermidis 3519. Format: functional.
Data set [11] concerns Streptococcus agalactiae. As to the kind of experiment: In vitro Minimum inhibitory concentration against Streptococcus agalactiae CMX 508. Format: functional.
In data set [12] the test system is Staphylococcus aureus. The experiment in a line: In vitro Minimum inhibitory concentration against Staphylococcus aureus 45. Type of data set: functional.
The subject of data set [13] is Staphylococcus aureus. The experiment in a line: In vitro Minimum inhibitory concentration against Staphylococcus aureus A5177. Format: functional.
Data set [14] relates to Staphylococcus aureus. As to the kind of experiment: In vitro Minimum inhibitory concentration against Staphylococcus aureus ATCC 6538P. Type of data set: functional.
In data set [15] the test system is Streptococcus equinus. The experiment in a line: In vitro Minimum inhibitory concentration against Streptococcus bovis A5169. Type of data set: functional.
The subject of data set [16] is Enterococcus faecium. As to the kind of experiment: In vitro Minimum inhibitory concentration against Streptococcus faecium ATCC 8043. Type of data set: functional.
Data set [17] relates to Staphylococcus aureus. As to the kind of experiment: In vivo efficacy against Staphylococcus aureus 10649, in mouse protection tests when administered perorally (po). Format: functional.
Data set [18] concerns Staphylococcus aureus. As to the kind of experiment: In vivo efficacy against Staphylococcus aureus 10649, in mouse protection tests when administered subcutaneously (sc). Type of data set: functional.
In data set [19] the test system is Streptococcus pyogenes. The experiment in a line: In vitro Minimum inhibitory concentration against Streptococcus pyogenes 930. Type of data set: functional.
Data set [20] can be described thus: Compound was evaluated for the solubility in Ringer's buffer solution. Type of data set: ADME.
The subject of data set [21] is Staphylococcus aureus. As to the kind of experiment: In vitro Minimum inhibitory concentration against Staphylococcus aureus CMX 686B. Format: functional.
Data set [22] in a line: Blood level was evaluated by a disk agar diffusion assay at 3.0 hh when administered at a peroral dose of 100 mg/kg. Format: ADME, organism-based. More on the design: dose 100 mg/kg, route oral. The note with it: mouse, po, read-out: Blood level.
Setting [23] is: Ringer's buffer solution, read-out: Solubility.

`N[C@H]1CC(CO)N(c2cc3c(cc2F)c(=O)c(C(=O)O)cn3-c2ccc(F)cc2F)C1` (stereo partly specified) had a lipophilicity (logP) in data set [1] of -0.98. The MIC in data set [2] came out at 6.2 µg/mL (≈ 14.3 µM); in data set [3] it was 0.78 µg/mL (≈ 1.8 µM); in data set [5], 0.78 µg/mL (≈ 1.8 µM); in [8], 0.78 µg/mL (≈ 1.8 µM); in data set [9], 0.39 µg/mL (≈ 0.9 µM); in data set [10] it was 0.78 µg/mL (≈ 1.8 µM). Moreover, the MIC worked out at 0.78 µg/mL (≈ 1.8 µM) in data set [11]; 1.56 µg/mL (≈ 3.6 µM) in [12]; 0.78 µg/mL (≈ 1.8 µM) in data set [13]; 0.1 µg/mL (≈ 0.231 µM) in data set [14]; 1.56 µg/mL (≈ 3.6 µM) in data set [15]; 0.78 µg/mL (≈ 1.8 µM) in data set [16]. The MIC in data set [19] and in data set [21] was 0.39 µg/mL (≈ 0.9 µM) each time. Besides, the IC50 in data set [4] stood at 0.4 µg/mL (≈ 0.923 µM). The ED50 in [6] was more than 16 mg/kg; in data set [7], 5.9 mg/kg; in data set [17] it was 5.4 mg/kg; in [18], 0.7 mg/kg. Also, in [20] (setting [23]), the solubility stood at 60 µg/mL (≈ 138 µM).
Turning to `N[C@H]1CC(CF)N(c2nc3c(cc2F)c(=O)c(C(=O)O)cn3-c2ccc(F)cc2F)C1` (stereo partly specified), the MIC is 0.39 µg/mL (≈ 0.894 µM) in data set [2]; 0.1 µg/mL (≈ 0.229 µM) in data set [3]; 0.1 µg/mL (≈ 0.229 µM) in [5]; 0.78 µg/mL (≈ 1.79 µM) in [8]; 0.78 µg/mL (≈ 1.79 µM) in [9]; 0.2 µg/mL (≈ 0.458 µM) in data set [10]. Besides, the MIC in data set [11] is 0.39 µg/mL (≈ 0.894 µM); in data set [12], 0.1 µg/mL (≈ 0.229 µM); in data set [13], 0.1 µg/mL (≈ 0.229 µM); in data set [14], 0.05 µg/mL (≈ 0.115 µM); in data set [15], 0.78 µg/mL (≈ 1.79 µM); in data set [16] it was 0.2 µg/mL (≈ 0.458 µM). Moreover, the figures for the MIC in data set [19] and in data set [21] were 0.2 µg/mL (≈ 0.458 µM) and 0.05 µg/mL (≈ 0.115 µM), respectively. Moreover, the IC50 in data set [4] was 0.75 µg/mL (≈ 1.72 µM).
On to `N[C@H]1C[C@@H](CO)N(c2cc3c(cc2F)c(=O)c(C(=O)O)cn3-c2ccc(F)cc2F)C1`, for which the MIC in data set [2] is 25 µg/mL (≈ 57.7 µM); in data set [3] it was 3.1 µg/mL (≈ 7.15 µM); in data set [5] it was 3.1 µg/mL (≈ 7.15 µM); in data set [8] it was 12.5 µg/mL (≈ 28.8 µM); in [9], 12.5 µg/mL (≈ 28.8 µM); in data set [10], 12.5 µg/mL (≈ 28.8 µM). For the same compound, the MIC stood at 12.5 µg/mL (≈ 28.8 µM) in data set [11]; 12.5 µg/mL (≈ 28.8 µM) in [12]; 6.2 µg/mL (≈ 14.3 µM) in data set [13]; 1.56 µg/mL (≈ 3.6 µM) in data set [14]; 50 µg/mL (≈ 115 µM) in data set [15]; 25 µg/mL (≈ 57.7 µM) in data set [16]. The MIC in data set [19] was 25 µg/mL (≈ 57.7 µM); in data set [21] it was 6.2 µg/mL (≈ 14.3 µM). Besides, the IC50 in data set [4] is 10 µg/mL (≈ 23.1 µM). In addition, the solubility in data set [20] (setting [23]) was 60 µg/mL (≈ 138 µM).
As to `O=C(O)c1cn(-c2ccc(F)cc2)c2cc(N3CCC[C@H]3CO)c(F)cc2c1=O`, the MIC in data set [2] is more than 100 µg/mL; in data set [3], 50 µg/mL (≈ 125 µM); in data set [5] it was 25 µg/mL (≈ 62.4 µM); in data set [8], more than 100 µg/mL; in data set [9] it was more than 100 µg/mL; in data set [10], 3.1 µg/mL (≈ 7.74 µM). Besides, the MIC in data set [11] was 100 µg/mL (≈ 250 µM); in data set [12] it was 3.1 µg/mL (≈ 7.74 µM); in [13] it was 3.1 µg/mL (≈ 7.74 µM); in data set [14] it was 3.1 µg/mL (≈ 7.74 µM); in data set [15], 100 µg/mL (≈ 250 µM); in data set [16] it was more than 100 µg/mL. For the same compound, the MIC was 50 µg/mL (≈ 125 µM) in data set [19] and 3.1 µg/mL (≈ 7.74 µM) in data set [21].
`C[C@@H]1C[C@H](N)CN1c1cc2c(cc1F)c(=O)c(C(=O)O)cn2-c1ccc(F)cc1F`: in [1], the logP was 0.03. Also, the MIC in data set [2] came to 3.1 µg/mL (≈ 7.43 µM); in data set [3], 0.78 µg/mL (≈ 1.87 µM); in data set [5] it was 0.78 µg/mL (≈ 1.87 µM); in data set [8], 5 µg/mL (≈ 12 µM); in [9], 6.2 µg/mL (≈ 14.9 µM); in [10], 0.78 µg/mL (≈ 1.87 µM). In addition, the MIC turned out to be 6.2 µg/mL (≈ 14.9 µM) in [11]; 0.78 µg/mL (≈ 1.87 µM) in data set [12]; 0.78 µg/mL (≈ 1.87 µM) in [13]; 0.39 µg/mL (≈ 0.934 µM) in data set [14]; 6.2 µg/mL (≈ 14.9 µM) in data set [15]; 3.1 µg/mL (≈ 7.43 µM) in data set [16]. Further, the MIC was 1.56 µg/mL (≈ 3.74 µM) in [19] and 0.39 µg/mL (≈ 0.934 µM) in data set [21]. In addition, the IC50 in data set [4] is 18 µg/mL (≈ 43.1 µM). In addition, the solubility in data set [20] (setting [23]) worked out at 182 µg/mL (≈ 436 µM).
With `NC1CCN(c2nc3c(cc2F)c(=O)c(C(=O)O)cn3-c2ccc(F)cc2F)C1` (stereo unspecified) [TOSUFLOXACIN], the logP in data set [1] is -0.46. For the same compound, the MIC was 0.05 µg/mL (≈ 0.124 µM) in data set [2]; 0.02 µg/mL (≈ 0.0495 µM) in [3]; 0.01 µg/mL (≈ 0.0247 µM) in data set [5]; 0.78 µg/mL (≈ 1.93 µM) in data set [8]; 0.39 µg/mL (≈ 0.965 µM) in data set [9]; 0.1 µg/mL (≈ 0.247 µM) in data set [10]. For the same compound, the minimal inhibitory concentration (MIC) in [11] was determined as 0.2 µg/mL (≈ 0.495 µM); in data set [12], 0.05 µg/mL (≈ 0.124 µM); in data set [13], 0.05 µg/mL (≈ 0.124 µM); in data set [14] it was 0.02 µg/mL (≈ 0.0495 µM); in data set [15], 0.78 µg/mL (≈ 1.93 µM); in [16], 0.2 µg/mL (≈ 0.495 µM). Also, the results for the MIC in [19] and in [21] were 0.1 µg/mL (≈ 0.247 µM) and 0.05 µg/mL (≈ 0.124 µM), respectively. In addition, the IC50 in data set [4] is 0.4 µg/mL (≈ 0.989 µM). The concentration at 3 h in [22] came to 1700 ng/mL. The compound also returned a solubility in data set [20] (buffer) of 8 µg/mL (≈ 19.8 µM).
